Results as given in ChEMBL document CHEMBL5244218, “Quinolone derivatives and their activities against methicillin-resistant Staphylococcus aureus (MRSA)” (Eur J Med Chem, 2018).
Values after ≈ are worked out from the molar mass of the structure shown.

Experiments:
Staphylococcus aureus [1] = test: Antimicrobial activity against methicillin-resistant Staphylococcus aureus assessed as inhibition of microbial growth; type: functional
Staphylococcus aureus [2] = test: Potency index, ratio of ciprofloxacin MIC to test compound MIC for antimicrobial activity against methicillin-resistant Staphylococcus aureus; type: functional
Staphylococcus aureus [3] = test: Antibacterial activity against methicillin-resistant Staphylococcus aureus; type: functional
Staphylococcus aureus [4] = test: Bactericidal activity against methicillin-resistant Staphylococcus aureus assessed as inhibition of microbial growth; type: functional
Staphylococcus aureus [5] = test: Antimicrobial activity against methicillin-resistant Staphylococcus aureus by agar dilution method; type: functional
Staphylococcus aureus [6] = test: Antimicrobial activity against methicillin-resistant Staphylococcus aureus incubated for 18 hrs by Alamar blue staining based analysis; type: functional
Staphylococcus aureus [7] = test: Antimicrobial activity against methicillin-resistant Staphylococcus aureus; type: functional, organism-based
Staphylococcus aureus [8] = test: Antimicrobial activity against methicillin-resistant Staphylococcus aureus incubated for 18 hrs by Agar dilution method; type: functional
Staphylococcus aureus [9] = test: Antibacterial activity against methicillin-resistant Staphylococcus aureus isolates by two fold dilution method; type: functional
Staphylococcus aureus [10] = test: Antimicrobial activity against methicillin-resistant Staphylococcus aureus isolates by agar dilution method; type: functional
Staphylococcus aureus [11] = test: Potency index, ratio of norfloxacin MIC to test compound MIC for antimicrobial activity against methicillin-resistant Staphylococcus aureus clinical isolate 1; type: functional
Staphylococcus aureus [12] = test: Potency index, ratio of ciprofloxacin MIC to test compound MIC for antimicrobial activity against methicillin-resistant Staphylococcus aureus clinical isolate 2; type: functional
Staphylococcus aureus [13] = test: Potency index, ratio of norfloxacin MIC to test compound MIC for antimicrobial activity against methicillin-resistant Staphylococcus aureus clinical isolate 2; type: functional
Staphylococcus aureus [14] = test: Antimicrobial activity against methicillin-resistant Staphylococcus aureus clinical isolate 1 measured after 18 hrs by agar dilution method; type: functional
Staphylococcus aureus [15] = test: Antimicrobial activity against methicillin-resistant Staphylococcus aureus clinical isolate 2 measured after 18 hrs by agar dilution method; type: functional
Staphylococcus aureus [16] = test: Potency index, ratio of ciprofloxacin MIC to test compound MIC for antimicrobial activity against methicillin-resistant Staphylococcus aureus clinical isolate 1; type: functional
Staphylococcus aureus [17] = test: Potency index, ratio of norfloxacin MIC to test compound MIC for antimicrobial activity against methicillin-resistant Staphylococcus aureus; type: functional
Staphylococcus aureus [18] = test: Antibacterial activity against methicillin-resistant Staphylococcus aureus assessed as inhibition of microbial growth; type: functional
Staphylococcus aureus [19] = test: Antimicrobial activity against methicillin-resistant Staphylococcus aureus Mi300 by microbroth dilution method; type: functional
Staphylococcus aureus [20] = test: Antimicrobial activity against methicillin-resistant Staphylococcus aureus Mi339 by microbroth dilution method; type: functional
[21] = Cytotoxicity against human HEK293 cells incubated for 72 hrs by MTT assay; type: toxicity, cell-based

`O=C(O)c1cn(C2CC2)c2c(c1=O)C=C(F)C1N=NC(c3ccc(F)cc3)=CN21` (stereo not drawn) showed an MIC (Staphylococcus aureus [1]) of 0.25 µg/mL and a Ratio (Staphylococcus aureus [2]) of 32.

For `COc1c(-n2cc3ccccc3c2)c(F)cc2c(=O)c(C(=O)Nc3nccs3)cn(C3CC3)c12`, the MIC (Staphylococcus aureus [3]) was greater than 201 µg/mL.

For `COc1ccc(C(=O)N2CCN(C(=O)N3CCN(c4ccc5c(=O)c(C(=O)O)cn(C6CC6)c5c4)CC3)CC2)c(OC)c1`, the MIC (Staphylococcus aureus [1]) was less than 0.016 µg/mL and the MBC (Staphylococcus aureus [4]) was no less than 128 µg/mL.

Compound `CCO/N=C1\CCN(c2nc3c(cc2F)c(=O)c(C(=O)O)cn3C2CC2)CC1(C)CNC` (stereo not drawn) has an MIC (Staphylococcus aureus [5]) of 64 µg/mL (≈ 144 µM).

Work on `C[C@H]1COc2c(N3CCN(C)CC3)c(F)cc3c(=O)c(C(=O)O)cn1c23.C[C@H]1COc2c(N3CCN(C)CC3)c(F)cc3c(=O)c(C(=O)O)cn1c23.O` [LEVOFLOXACIN] yielded an MIC (Staphylococcus aureus [6]) of 32 µg/mL, an MIC (Staphylococcus aureus [7]) of 16 µg/mL and an MIC (Staphylococcus aureus [8]) of 0.06 µg/mL. It also gave an MIC (Staphylococcus aureus [9]) of 1.56 µg/mL and an MIC (Staphylococcus aureus [10]) of 0.5 µg/mL.

`CO/N=C1\CN(c2nc3c(cc2F)c(=O)c(C(=O)O)cn3C2CC2)CC1CN` (stereo not drawn) [GEMIFLOXACIN] gave an MIC (Staphylococcus aureus [6]) of 4 µg/mL (≈ 10.3 µM) and an MIC (Staphylococcus aureus [8]) of 0.06 µg/mL (≈ 0.154 µM).

`COc1cc(OC)cc(C(=O)N2CCN(C(=O)N3CCN(c4ccc5c(=O)c(C(=O)O)cn(C6CC6)c5c4)CC3)CC2)c1` gave an MIC (Staphylococcus aureus [1]) of less than 0.016 µg/mL and an MBC (Staphylococcus aureus [4]) of no less than 128 µg/mL.

In the case of `O=C(O)c1cn(C2CC2)c2cc(N3CCN(C/C(=N/O)c4cccs4)CC3)c(F)cc2c1=O`, the Ratio (Staphylococcus aureus [11]) is reported as 4, the Ratio (Staphylococcus aureus [12]) is reported as 2 and the Ratio (Staphylococcus aureus [13]) is reported as 4. The MIC (Staphylococcus aureus [14]) was 0.19 µg/mL (≈ 0.404 µM), the MIC (Staphylococcus aureus [15]) was 0.19 µg/mL (≈ 0.404 µM) and the Ratio (Staphylococcus aureus [16]) was 2.

Compound `COc1ccc(NC2CN(c3c(F)cc4c(=O)c(C(=O)O)cn(C5CC5)c4c3F)C2)cc1` has an MIC (Staphylococcus aureus [10]) of 0.16 µg/mL (≈ 0.362 µM).

For `O=C(O)c1cn(CC(O)Cn2cncn2)c2ccc(F)cc2c1=O` (stereo not drawn), the Ratio (Staphylococcus aureus [17]) was 8 and the MIC (Staphylococcus aureus [3]) was 1 µg/mL (≈ 3.01 µM).

Work on `O=C(O)c1cn(C2CC2)c2c(F)c(N3CC(Nc4ccccc4)C3)c(F)cc2c1=O` yielded an MIC (Staphylococcus aureus [10]) of 0.016 µg/mL (≈ 0.0389 µM).

Work on `CNCC1CN(c2cc(N)c3c(=O)c(C(=O)O)cn(C4CC4)c3c2C(C)=O)CC1(C)C` (stereo not drawn) yielded an MIC (Staphylococcus aureus [18]) of 0.015 µg/mL.

With `CNCC1CN(c2ccc3c(=O)c(C(=O)O)cn(C4CC4)c3c2)CC1(C)C` (stereo not drawn) the MIC (Staphylococcus aureus [18]) was 0.015 µg/mL.

In the case of `COc1c(N2CCCCC2)c(F)cc2c(=O)c(C(=O)Nc3nccs3)cn(C3CC3)c12`, the MIC (Staphylococcus aureus [3]) is reported as greater than 201 µg/mL.

`O=C(O)c1cn(C2CC2)c2cc(N3CCN(C/C(=N/O)c4ccco4)CC3)c(F)cc2c1=O` gave a Ratio (Staphylococcus aureus [11]) of 4, a Ratio (Staphylococcus aureus [12]) of 2 and a Ratio (Staphylococcus aureus [13]) of 4. It also gave an MIC (Staphylococcus aureus [14]) of 0.19 µg/mL (≈ 0.418 µM), an MIC (Staphylococcus aureus [15]) of 0.19 µg/mL (≈ 0.418 µM) and a Ratio (Staphylococcus aureus [16]) of 2.

For `O=C(O)c1cn(C2CC2)c2c(F)c(N3CC(Nc4ccc(Cl)cc4)C3)c(F)cc2c1=O`, the MIC (Staphylococcus aureus [10]) was 0.016 µg/mL (≈ 0.0359 µM).

In the case of `CC1(C)CN(c2ccc3c(=O)c(C(=O)O)cn(-c4ccc(F)cc4F)c3n2)CC1CN` (stereo not drawn), the MIC (Staphylococcus aureus [18]) is reported as 0.015 µg/mL.

In the case of `COc1c(N2CC/C(=N/Oc3ccc(C)c(C)c3)C(N)C2)c(F)cc2c(=O)c(C(=O)O)cn(C3CC3)c12` (stereo not drawn), the MIC (Staphylococcus aureus [6]) is reported as 0.008 µg/mL (≈ 0.0157 µM).

In the case of `COc1ccc(OC)c(O/N=C2/CCN(c3c(F)cc4c(=O)c(C(=O)O)cn(C5CC5)c4c3OC)CC2N)c1` (stereo not drawn), the MIC (Staphylococcus aureus [6]) is reported as 0.008 µg/mL (≈ 0.0148 µM).

`CCO/N=C1\CCN(c2nc3c(cc2F)c(=O)c(C(=O)O)cn3C2CC2)CC1(C)CN` (stereo not drawn) gave an MIC (Staphylococcus aureus [7]) of 8 µg/mL.

Work on `C[C@@H](O)[C@H]1C(=O)N2C(C(=O)O)=C(COC(=O)N[C@H]3CCC(c4c(F)cc5c(=O)c(C(=O)O)cn(C6CC6)c5c4F)C3)S[C@H]12` (stereo partly drawn) yielded an MIC (Staphylococcus aureus [19]) of no more than 0.06 µg/mL and an MIC (Staphylococcus aureus [20]) of 4 µg/mL (≈ 6.46 µM).

`CCn1cc(C(=O)O)c(=O)c2cc(F)c(N3CCN(C/C(=N/O)c4ccc(OC)cc4)CC3)c(F)c21` showed a Ratio (Staphylococcus aureus [17]) of 24 and an MIC (Staphylococcus aureus [7]) of 0.2 µM.

Compound `O=C(O)c1cn(C2CC2)c2c(F)c(N3CC(N(Cc4ccccc4)Cc4ccccc4)C3)c(F)cc2c1=O` has an MIC (Staphylococcus aureus [10]) of 0.016 µg/mL (≈ 0.031 µM).

Compound `CC1(C)CN(c2ccc3c(=O)c(C(=O)O)cn(C4CC4)c3n2)CC1CN` (stereo not drawn) has an MIC (Staphylococcus aureus [18]) of 0.015 µg/mL.

In the case of `CCOC(=O)c1cn(CC(O)Cn2cncn2)c2c(Cl)cc(Cl)cc2c1=O` (stereo not drawn), the Ratio (Staphylococcus aureus [17]) is reported as 8 and the MIC (Staphylococcus aureus [3]) is reported as 1 µg/mL (≈ 2.43 µM).

With `CNCC1(C)CN(c2nc3c(cc2F)c(=O)c(C(=O)O)cn3C2CC2)CC/C1=N\OC` (stereo not drawn) the MIC (Staphylococcus aureus [5]) was 64 µg/mL (≈ 148 µM).

In the case of `CC(=O)c1c(N2CC(CN)C(C)(C)C2)ccc2c(=O)c(C(=O)O)cn(C3CC3)c12` (stereo not drawn), the MIC (Staphylococcus aureus [18]) is reported as 0.015 µg/mL.

`COc1cc(OC)cc(O/N=C2/CCN(c3c(F)cc4c(=O)c(C(=O)O)cn(C5CC5)c4c3OC)CC2N)c1` (stereo not drawn) showed an MIC (Staphylococcus aureus [6]) of 0.008 µg/mL (≈ 0.0148 µM).

`COc1c(N2CCNC(C)C2)c(F)cc2c(=O)c(C(=O)O)cn(C3CC3)c12` (stereo not drawn) [GATIFLOXACIN] gave an MIC (Staphylococcus aureus [18]) of 0.06 µg/mL, an MIC (Staphylococcus aureus [7]) of 16 µg/mL and an MIC (Staphylococcus aureus [8]) of 0.06 µg/mL (≈ 0.16 µM).

`COc1cccc(O/N=C2/CCN(c3c(F)cc4c(=O)c(C(=O)O)cn(C5CC5)c4c3OC)CC2N)c1` (stereo not drawn) showed an MIC (Staphylococcus aureus [6]) of 0.008 µg/mL (≈ 0.0157 µM).

With `O=C(O)c1cn(C2CC2)c2c(Cl)c(N3CCN(Cn4nc(-c5ccccc5O)n(Cc5ccc(F)cc5)c4=S)CC3)c(F)cc2c1=O` the EC50 at 72 h [21] was 50.5 µM.

`O=C(O)c1c(=O)c2cc(F)c(N3CCOCC3)c3c2n2c(csc12)CN3` showed an MIC (Staphylococcus aureus [9]) of 0.05 µg/mL (≈ 0.133 µM).

In the case of `O=C(O)c1cn(C2CC2)c2c(c1=O)C=C(F)C1N=NC(c3ccccc3F)=CN21` (stereo not drawn), the MIC (Staphylococcus aureus [1]) is reported as 0.25 µg/mL and the Ratio (Staphylococcus aureus [2]) is reported as 32.
